Results published in patent US20120101099A1, “HISTONE DEACETYLASE INHIBITORS” (ANTHEM BIOSCIENCES PRIVATE LIMITED, priority 2009, published 2012).

Experiments:
[1] = Oral bioavailability and pharmacokinetics studies; assay type: in vivo, male Balb/c mice; settings: male Balb/c mouse
Method: The studies were performed to determine the oral bioavailability and pharmacokinetics of test compounds in male Balb/c mice. Study was performed after obtaining the Institutional Animal Ethics Committee (IAEC) permission. Mice aged 5 to 6 weeks weighing around 25 to 30 g were used for this study. The animals were fasted overnight with free access to water. Animals were administered test compounds by oral route at a 50 mg/kg body weight (formulation: 0.5% methylcellulose in water and 0.1% tween 80. Dose volume 10 ml/kg b.w.) or intravenous route at a dose 10 mg/kg b.w. […] (formulation: 0.9% saline. Dose volume 10 ml/kg b.w.) Blood samples were collected at various time points during the next 24 hours post dose. The blood samples were centrifuged at 3000 g for 5 minutes at 4° C. and the corresponding plasma samples were collected in clean pre-labeled tubes. Then, each sample was subjected to a suitable extraction method and analysed by LC-MS/MS (API 3200 LC-MS/MS system). Data was analyzed using WinNonlin version 5.2 (Pharsight).

[2] = system: A549 human lung xenograft; assay: In vivo anti-cancer activity using a human tumor xenograft; parameters: species or system athymic nude mice (nu/nu); settings: for % TGI on Day 21: p.o, once daily
Method: The study was carried out in athymic nude mice (nu/nu) of BALB-c background at age 6-8 weeks. The animals were maintained in Individually Ventilated cages in a protected and controlled environment. All animal handling and procedures were carried out in a laminar air flow hood, under anesthesia when necessary. The studies were conducted in compliance with protocols approved by Anthem Biosciences Institutional Animal Ethics Committee (IAEC).
Human cell lines derived from tumors of lung were selected for evaluation. The tumor cells cell lines were grown and expanded in RPMI 1640 (supplemented with 1.5 mM L-glutamine and 10% FBS) Subconfluent monolayers were harvested, pelleted and resuspended in RPMI 1640 medium prior to counting on a haemocytometer. Viable cells were counted using trypan blue exclusion and a cell suspension was made in cold media with a concentration of 5×10^6/ml.
[…] of the cell suspension containing 10^6 cells of greater than 90% viability was mixed with an equal volume of Matrigel (10 mg/ml) in PBS (pH7.4) and was kept at 4 deg C. Nude mice were anaesthetized and were injected subcutaneously in the flank region with 0.1 ml using a 25 gauge needle. Animals were monitored daily during the period between inoculation and palpable tumor growth. Tumor size was measured with a digital Vernier caliper and tumor-bearing mice were randomized into control and treatment groups (n=10) when sufficient tumor volume was attained (approx. 100 mm3). The following formula was used to calculate the tumor volume:
Tumor volume=(length×width2)/2.
[…] Tumor volume and was body weight was measured three times per week.

HDAC2 = biological target: T1, HDAC2 (Homo sapiens, UniProt Q92769); assay: biochemical
T1 construct: purchased Biomol, USA
Method: Assay was performed in 96-well black microplate and total volume of the assay was 100 μL. Hela nuclear extract was diluted HDAC assay buffer (final concentration of 3.0 μg/mL). Enzyme mixture was made of 10 μL of diluted enzyme and 30 μL of HDAC buffer. 40 μl of enzyme mixture followed by 10 μL of test compound (final concentration from 0.01 to 10 μM) or vehicle (control) was added to each well. The plate was pre-incubated at 37° C. for 10 minutes. The HDAC reaction was started by adding 50 μl of HDAC substrate Boc-Lys (Ac)-AMC (Anaspec, Inc Fremont, Calif., USA). The plate was incubated at 37° C. for 45 minutes. The reaction was stopped by adding 50 μL of Trypsin stop solution and plate further incubated at 37° C. for 15 minutes. Measuring the fluorescence at excitation wavelength of 360 nm and emission wavelength of 460 nm monitored the release of AMC. Buffer alone and substrate alone served as blank.

[3] = system: recombinant HDAC isoforms; assay: Isoform selectivity assay (overall statement); settings: HDAC1, HDAC2, HDAC3, HDAC6, HDAC8
Method: (§1) Following the HDAC inhibition assay using Hela nuclear extract, isoform selectivity was tested using recombinant HDAC isoforms (Biomol, USA).

HDAC1 = HDAC1 (Homo sapiens, UniProt Q13547); assay: Isoform selectivity assay, recombinant HDAC isoforms
Method: as §1

HDAC3 = HDAC3 (Homo sapiens, UniProt O15379); assay: as above
Method: as §1

HDAC6 = HDAC6 (Homo sapiens, UniProt Q9UBN7); assay: as above
Method: as §1

HDAC8 = HDAC8 (Homo sapiens, UniProt Q9BY41); assay: as above
HDAC8, sequence (Q9BY41 whole entry): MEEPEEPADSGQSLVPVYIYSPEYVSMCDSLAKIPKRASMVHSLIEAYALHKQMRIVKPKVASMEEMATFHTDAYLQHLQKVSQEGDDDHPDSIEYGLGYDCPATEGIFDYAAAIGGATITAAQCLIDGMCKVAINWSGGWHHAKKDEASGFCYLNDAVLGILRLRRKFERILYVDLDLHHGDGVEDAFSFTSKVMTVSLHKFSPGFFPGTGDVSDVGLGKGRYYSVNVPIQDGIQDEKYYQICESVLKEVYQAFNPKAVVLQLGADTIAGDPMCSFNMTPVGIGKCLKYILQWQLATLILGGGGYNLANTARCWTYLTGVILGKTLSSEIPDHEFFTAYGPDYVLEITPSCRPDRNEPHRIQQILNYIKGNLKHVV
Method: as §1

HDAC3, sequence (O15379 whole entry): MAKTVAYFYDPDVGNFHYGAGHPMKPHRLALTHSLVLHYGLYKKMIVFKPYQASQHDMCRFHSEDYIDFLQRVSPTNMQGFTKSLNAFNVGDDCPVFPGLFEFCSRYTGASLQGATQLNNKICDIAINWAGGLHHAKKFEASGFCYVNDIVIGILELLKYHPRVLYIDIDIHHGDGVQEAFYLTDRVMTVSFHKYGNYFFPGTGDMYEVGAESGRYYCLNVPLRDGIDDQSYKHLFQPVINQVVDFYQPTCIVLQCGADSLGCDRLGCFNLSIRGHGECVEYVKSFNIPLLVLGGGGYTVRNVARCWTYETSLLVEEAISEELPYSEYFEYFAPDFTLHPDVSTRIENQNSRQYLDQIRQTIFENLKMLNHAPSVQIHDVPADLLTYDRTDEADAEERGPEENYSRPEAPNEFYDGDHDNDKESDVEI
T1 sequence (Q92769 whole entry): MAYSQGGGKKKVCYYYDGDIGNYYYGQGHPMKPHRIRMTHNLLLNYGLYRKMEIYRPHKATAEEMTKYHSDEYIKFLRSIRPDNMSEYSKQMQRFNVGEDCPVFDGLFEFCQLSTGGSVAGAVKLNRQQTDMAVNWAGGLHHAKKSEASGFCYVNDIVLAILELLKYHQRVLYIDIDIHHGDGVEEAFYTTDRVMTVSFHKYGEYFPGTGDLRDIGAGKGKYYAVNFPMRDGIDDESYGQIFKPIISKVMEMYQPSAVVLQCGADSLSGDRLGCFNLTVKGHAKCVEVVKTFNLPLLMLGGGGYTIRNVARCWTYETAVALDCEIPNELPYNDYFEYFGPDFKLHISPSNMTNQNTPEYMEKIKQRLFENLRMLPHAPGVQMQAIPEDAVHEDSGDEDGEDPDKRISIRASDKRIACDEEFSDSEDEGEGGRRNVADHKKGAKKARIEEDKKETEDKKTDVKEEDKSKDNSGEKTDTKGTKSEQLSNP
HDAC1, sequence (Q13547 whole entry, canonical isoform): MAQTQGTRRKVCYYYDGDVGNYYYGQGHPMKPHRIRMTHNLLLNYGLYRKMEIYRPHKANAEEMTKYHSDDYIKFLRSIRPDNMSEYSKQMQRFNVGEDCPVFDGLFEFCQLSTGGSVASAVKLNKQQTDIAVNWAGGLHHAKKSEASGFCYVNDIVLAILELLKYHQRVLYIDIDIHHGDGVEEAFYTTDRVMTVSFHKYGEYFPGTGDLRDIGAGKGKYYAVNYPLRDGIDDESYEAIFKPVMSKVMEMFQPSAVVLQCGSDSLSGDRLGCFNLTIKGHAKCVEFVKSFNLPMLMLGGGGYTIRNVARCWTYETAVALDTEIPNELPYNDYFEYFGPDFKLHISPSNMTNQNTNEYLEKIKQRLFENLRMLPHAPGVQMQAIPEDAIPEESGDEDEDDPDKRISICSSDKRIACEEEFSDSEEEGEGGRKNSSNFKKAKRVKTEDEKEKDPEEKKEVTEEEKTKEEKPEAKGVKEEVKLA
HDAC6, sequence (Q9UBN7 whole entry): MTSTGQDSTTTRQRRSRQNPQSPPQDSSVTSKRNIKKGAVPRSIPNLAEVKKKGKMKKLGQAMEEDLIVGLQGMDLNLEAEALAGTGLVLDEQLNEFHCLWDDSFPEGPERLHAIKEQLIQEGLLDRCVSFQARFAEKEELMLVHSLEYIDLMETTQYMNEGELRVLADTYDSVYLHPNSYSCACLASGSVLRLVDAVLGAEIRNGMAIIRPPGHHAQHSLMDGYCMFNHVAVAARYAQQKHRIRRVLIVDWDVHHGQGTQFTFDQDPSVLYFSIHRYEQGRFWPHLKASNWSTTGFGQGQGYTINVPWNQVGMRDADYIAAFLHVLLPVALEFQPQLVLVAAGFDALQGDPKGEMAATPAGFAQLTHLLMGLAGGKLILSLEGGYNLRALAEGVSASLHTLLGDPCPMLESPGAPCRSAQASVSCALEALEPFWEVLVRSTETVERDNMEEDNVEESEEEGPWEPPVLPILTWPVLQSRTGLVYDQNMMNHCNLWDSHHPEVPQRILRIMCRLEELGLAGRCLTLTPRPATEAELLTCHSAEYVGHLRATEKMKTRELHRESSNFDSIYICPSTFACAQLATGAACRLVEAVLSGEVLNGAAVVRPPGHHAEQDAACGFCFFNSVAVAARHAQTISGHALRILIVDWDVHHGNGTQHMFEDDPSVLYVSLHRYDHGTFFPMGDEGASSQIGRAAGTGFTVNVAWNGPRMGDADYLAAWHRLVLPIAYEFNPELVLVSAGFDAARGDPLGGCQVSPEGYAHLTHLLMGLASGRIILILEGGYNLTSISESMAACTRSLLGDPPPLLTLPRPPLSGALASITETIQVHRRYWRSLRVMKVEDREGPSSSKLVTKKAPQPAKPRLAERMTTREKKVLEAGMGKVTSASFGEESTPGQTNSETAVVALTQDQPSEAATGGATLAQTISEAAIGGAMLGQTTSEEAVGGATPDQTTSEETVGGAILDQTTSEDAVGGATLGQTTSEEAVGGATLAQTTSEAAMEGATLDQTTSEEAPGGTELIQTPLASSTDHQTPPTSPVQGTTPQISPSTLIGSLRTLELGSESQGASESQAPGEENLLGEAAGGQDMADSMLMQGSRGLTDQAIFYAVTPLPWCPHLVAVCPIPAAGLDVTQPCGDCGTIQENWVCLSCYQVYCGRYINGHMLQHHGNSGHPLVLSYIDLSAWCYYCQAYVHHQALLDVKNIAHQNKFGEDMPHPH

Compound	AUC last 0 to 24 h ([1]; oral 50 mg/kg) [ng·h/mL]	T1/2 ([1]; oral 50 mg/kg) [min]	bioavailability ([1]; plasma, oral 50 mg/kg vs intravenous) [%]	Cmax ([1]; plasma, oral 50 mg/kg) [ng/mL]	Tmax ([1]; plasma, oral 50 mg/kg) [min]	% TGI on Day 21 ([2]; 150 mg/kg) [%]	IC50 (HDAC2) [nM]	% TGI on Day 21 ([2]; 12.5 mg/kg, listed as Ex. 8) [%]	% TGI on Day 21 ([2]; 12.5 mg/kg, listed as Ex.8) [%]	% TGI on Day 21 ([2]; 25 mg/kg, listed as Ex. 8) [%]	% TGI on Day 21 ([2]; 25 mg/kg, listed as Ex.8) [%]	% TGI on Day 21 ([2]; 50 mg/kg, listed as Ex. 8) [%]	% TGI on Day 21 ([2]; 50 mg/kg, listed as Ex.8) [%]	body weight compared to the vehicle control group ([2]; 21 days oral treatment)	isoform selectivity [3]	IC50 (HDAC1) [nM]	IC50 (HDAC3) [nM]	IC50 (HDAC6) [nM]	IC50 (HDAC8) [nM]
O=C(CCCCCCC(=O)Nc1ccccc1)NO [SAHA, Suberoylanilide Hydroxamic Acid, reference compound]	347	48	11 ± 3	580	4.8	53.6													
O=C(NO)c1ccc(Cn2cc(-c3ccc(CN4CCCC4)cc3)nn2)cc1 [Example 8, N-Hydroxy-4-[4-(4-pyrrolidin-1-ylmethyl-phenyl)-[1,2,3]triazol-1-ylmethyl]-benzamide]							29	27.3	27	36.9	32	52.1	57	no significant reduction in body weight	pan-HDAC inhibitor	25	2	11	282
